From patent US10548877B2, “Aromatic ring compound” (TAKEDA PHARMACEUTICAL COMPANY LIMITED, priority 2016, dated 2020)

Target: T1, human M1 receptor (hCHRM1) (Homo sapiens, UniProt P11229)
T1 construct: expressed in transfected cells
T1 sequence (P11229 1-460): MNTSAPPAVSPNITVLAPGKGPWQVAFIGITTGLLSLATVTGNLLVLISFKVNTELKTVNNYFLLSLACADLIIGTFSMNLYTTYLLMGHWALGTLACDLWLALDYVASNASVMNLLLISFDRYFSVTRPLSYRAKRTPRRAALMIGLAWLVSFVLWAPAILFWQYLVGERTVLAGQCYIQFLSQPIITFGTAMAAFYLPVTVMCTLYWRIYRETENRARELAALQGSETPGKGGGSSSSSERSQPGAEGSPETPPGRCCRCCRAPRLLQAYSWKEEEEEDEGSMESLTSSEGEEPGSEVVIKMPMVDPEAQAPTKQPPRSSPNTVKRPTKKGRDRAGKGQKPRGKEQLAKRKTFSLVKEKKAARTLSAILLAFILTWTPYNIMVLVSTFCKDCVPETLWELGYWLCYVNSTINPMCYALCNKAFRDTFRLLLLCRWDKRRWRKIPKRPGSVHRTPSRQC
Assay: Measurement of M1 receptor positive allosteric modulator (M1PAM) activity (calcium fluorescence, Fluo-4)
Format: cell-based
Conditions: for EC50: inflection point of concentration-dependent curve, CHO-K1 cells stably expressing hCHRM1, in presence of acetylcholine at EC20 (final 0.8-1.0 nM), read-out: IP value; for activity (%) at 10 μM: test compound 10 μM with acetylcholine at EC20, 100% = 1 μM acetylcholine, 0% = DMSO, CHO-K1 cells expressing hCHRM1
Protocol: Measurement of M1 Receptor Positive Allosteric Modulator (M1PAM) Activity
The activity of a test compound in the presence of acetylcholine at EC20 concentration (final concentration 0.8-1.0 nM), which affords an action corresponding to about 20% of the maximum activity, was measured as PAM activity. The method is as follows. CHO-K1 cells stably expressing a human M1 receptor (hCHRM1) were plated on a 384-well black clear bottom plate (BD Falcon) at 5,000 cells/well, and cultured in an incubator at 37° C., 5% CO2 for 1 day. The medium in the cell plate was removed, and assay buffer A containing a calcium indicator (Recording medium (DOJINDO LABORATORIES), 0.1% BSA (Wako Pure Chemical Industries, Ltd.), 2.5 μg/mL Fluo-4 AM (DOJINDO LABORATORIES), 0.08% Pluronic F127 (DOJINDO LABORATORIES) and 1.25 mM probenecid (DOJINDO LABORATORIES) were added at 30 μL/well. The cells were left standing in the incubator at 37° C., 5% CO2 for 30 min, and further left standing at room temperature for 30 min. A test compound prepared by diluting with assay buffer B (HBSS (Invitrogen), 20 mM HEPES (Invitrogen), 0.1% BSA) containing 3.2-4.0 nM acetylcholine was added at 10 μL/well, and the fluorescence was measured by FDSS/pcell (Hamamatsu Photonics K.K.) for 1 min every for 1 second. With the definition that the amount of change in the fluorescence on addition of acetylcholine (final concentration 1 μM) is 100% and that on addition of DMSO instead of a test compound is 0%, the activity (%) of the test compound was calculated, and the inflection point in the concentration-dependent curve of the test compound was calculated as IP values.

| SMILES | EC50 | activity (%) at 10 μM |
| --- | --- | --- |
| Cc1c(Cc2ccc(-c3cn(C)nn3)cc2)cc(C(=O)N[C@H]2CCCC[C@@H]2O)c(OCC2CC2)c1C [Example 17, 2-(cyclopropylmethoxy)-N-((1S,2S)-2-hydroxycyclohexyl)-3,4-dimethyl-5-(4-(1-methyl-1H-1,2,3-triazol-4-yl)benzyl)benzamide] | 40 nM | 99% |
| Cc1c(Cc2ccc(-c3cn(C)nn3)cc2)cc(C(=O)N[C@H]2CCCC[C@@H]2O)c(OC(F)F)c1C [Example 18, 2-(difluoromethoxy)-N-((1S,2S)-2-hydroxycyclohexyl)-3,4-dimethyl-5-(4-(1-methyl-1H-1,2,3-triazol-4-yl)benzyl)benzamide] | 27 nM | 97% |
| Cc1c(Cc2ccc(-n3cccn3)nc2)cc(C(=O)N[C@H]2CCC[C@@H]2O)c(F)c1C [Example 19, 2-fluoro-N-((1S,2S)-2-hydroxycyclopentyl)-3,4-dimethyl-5-((6-(1H-pyrazol-1-yl)pyridin-3-yl)methyl)benzamide] | 84 nM | 93% |
| Cc1c(Cc2ccc(-n3cccn3)nc2)cc(C(=O)N[C@H]2CCCC[C@@H]2O)c(F)c1C [Example 20, 2-fluoro-N-((1S,2S)-2-hydroxycyclohexyl)-3,4-dimethyl-5-((6-(1H-pyrazol-1-yl)pyridin-3-yl)methyl)benzamide] | 31 nM | 97% |
| COc1c(C(=O)N[C@H]2CCCC[C@@H]2O)cc(Cc2ccc(-c3ccn(C)n3)nc2)c(C)c1C [Example 21, N-((1S,2S)-2-hydroxycyclohexyl)-2-methoxy-3,4-dimethyl-5-((6-(1-methyl-1H-pyrazol-3-yl)pyridin-3-yl)methyl)benzamide] | 10 nM | 96% |
| COc1c(C(=O)N[C@H]2CCC[C@@H]2O)cc(Cc2ccc(-c3ccn(C)n3)nc2)c(C)c1C [Example 22, N-((1S,2S)-2-hydroxycyclopentyl)-2-methoxy-3,4-dimethyl-5-((6-(1-methyl-1H-pyrazol-3-yl)pyridin-3-yl)methyl)benzamide] | 55 nM | 95% |
| COc1c(C(=O)N[C@H]2CCOC[C@@H]2O)cc(Cc2ccc(-c3cn(C)nn3)cc2)c(C)c1C [Example 24, 1,5-anhydro-2,3-dideoxy-3-((2-methoxy-3,4-dimethyl-5-(4-(1-methyl-1H-1,2,3-triazol-4-yl)benzyl)benzoyl)amino)-L-threo-pentitol] | 2.6 nM | 95% |
| Cc1c(Cc2ccc(-n3cccn3)cc2)cc(C(=O)N[C@H]2COCC[C@@H]2O)c(F)c1F [Example 25, 1,5-anhydro-2,4-dideoxy-2-((2,3-difluoro-4-methyl-5-(4-(1H-pyrazol-1-yl)benzyl)benzoyl)amino)-L-threo-pentitol] | 33 nM | 97% |
| COc1c(C(=O)N[C@H]2COCC[C@@H]2O)cc(Cc2ccc(-c3ccn(C)n3)cc2)c(C)c1C [Example 26, 1,5-anhydro-2,4-dideoxy-2-((2-methoxy-3,4-dimethyl-5-(4-(1-methyl-1H-pyrazol-3-yl)benzyl)benzoyl)amino)-L-threo-pentitol] | 31 nM | 99% |
| COc1c(C(=O)N[C@H]2COCC[C@@H]2O)cc(Cc2ccc(-n3cccn3)cc2)c(C)c1C [Example 27, 1,5-anhydro-2,4-dideoxy-2-((2-methoxy-3,4-dimethyl-5-(4-(1H-pyrazol-1-yl)benzyl)benzoyl)amino)-L-threo-pentitol] | 39 nM | 100% |
| COc1c(C(=O)N[C@H]2COCC[C@@H]2O)cc(Cc2ccc(-c3cn(C)nc3C)nc2)c(C)c1C [Example 28, 1,5-anhydro-2,4-dideoxy-2-((5-((6-(1,3-dimethyl-1H-pyrazol-4-yl)pyridin-3-yl)methyl)-2-methoxy-3,4-dimethylbenzoyl)amino)-L-threo-pentitol] | 20 nM | 100% |
| COc1c(C(=O)N[C@H]2COCC[C@@H]2O)cc(Cc2ccc(-c3cn(C)nc3C)cc2)c(C)c1C [Example 29, 1,5-anhydro-2,4-dideoxy-2-((5-(4-(1,3-dimethyl-1H-pyrazol-4-yl)benzyl)-2-methoxy-3,4-dimethylbenzoyl)amino)-L-threo-pentitol] | 48 nM | 97% |
| COc1c(C(=O)N[C@H]2COCC[C@@H]2O)cc(Cc2ccc(-c3ccn(C)n3)nc2)c(C)c1C [Example 31, 1,5-anhydro-2,4-dideoxy-2-((2-methoxy-3,4-dimethyl-5-((6-(1-methyl-1H-pyrazol-3-yl)pyridin-3-yl)methyl)benzoyl)amino)-L-threo-pentitol] | 67 nM | 97% |
| Cc1c(Cc2ccc(-c3cscn3)cc2)cc(C(=O)N[C@H]2COCC[C@@H]2O)c(F)c1C [Example 32, 1,5-anhydro-2,4-dideoxy-2-((2-fluoro-3,4-dimethyl-5-(4-(1,3-thiazol-4-yl)benzyl)benzoyl)amino)-L-threo-pentitol] | 16 nM | 101% |
